Laboratory results: ChEMBL document CHEMBL3232809, “Synthesis, antibiotic activity and structure-activity relationship study of some 3-enaminetetramic acids” (2014)
Values after ≈ are worked out from the molar mass of the structure shown.

Legend:
Assay type in all cases: functional
[1] = system: Staphylococcus aureus; assay: Antimicrobial activity against methicillin-sensitive Staphylococcus aureus ATCC 13709
[2] = system: Staphylococcus aureus; assay: Antimicrobial activity against vancomycin-susceptible Staphylococcus aureus ATCC 25923
[3] = system: Enterococcus faecalis; assay: Antimicrobial activity against vancomycin-susceptible Enterococcus faecalis ATCC 29212
[4] = system: Haemophilus influenzae; assay: Antimicrobial activity against Haemophilus influenzae ATCC 31517 MMSA
[5] = system: Streptococcus pneumoniae; assay: Antimicrobial activity against penicillin- and erythromycin-resistant Streptococcus pneumoniae in presence of 2.5% horse blood
[6] = system: Escherichia coli; assay: Antimicrobial activity against Escherichia coli 50
[7] = system: Streptococcus pneumoniae; assay: Antimicrobial activity against erythromycin-susceptible Streptococcus pneumoniae ATCC 49619
[8] = system: Pseudomonas aeruginosa; assay: Antimicrobial activity against Pseudomonas aeruginosa ATCC 27853
[9] = system: Haemophilus influenzae; assay: Antimicrobial activity against LS2 Efflux knock-out Haemophilus influenzae
[10] = system: Streptococcus pneumoniae; assay: Antimicrobial activity against penicillin- and erythromycin-resistant Streptococcus pneumoniae
[11] = system: Staphylococcus aureus; assay: Antimicrobial activity against Staphylococcus aureus Oxford
[12] = system: Enterococcus faecium; assay: Antimicrobial activity against vancomycin-resistant Enterococcus faecium
[13] = system: Escherichia coli; assay: Antimicrobial activity against Escherichia coli 49
[14] = system: Staphylococcus aureus; assay: Antimicrobial activity against methicillin-resistant Staphylococcus aureus
[15] = system: Escherichia coli; assay: Antimicrobial activity against Escherichia coli ATCC 25922

| Compound | MIC [1] [µg/mL] | MIC [2] [µg/mL] | MIC [3] [µg/mL] | MIC [4] [µg/mL] | MIC [5] [µg/mL] | MIC [6] [µg/mL] | MIC [7] [µg/mL] | MIC [8] [µg/mL] | MIC [9] [µg/mL] | MIC [10] [µg/mL] | MIC [11] [µg/mL] | MIC [12] [µg/mL] | MIC [13] [µg/mL] | MIC [14] [µg/mL] | MIC [15] [µg/mL] |
| --- | --- | --- | --- | --- | --- | --- | --- | --- | --- | --- | --- | --- | --- | --- | --- |
| CCOC(=O)[C@]12CO[C@H](C(C)(C)C)N1C(=O)/C(=C(/CC13CC4CC(CC(C4)C1)C3)NCCCN1CCOCC1)C2=O | > 64 | > 64 | > 64 | > 64 | > 64 | > 32 | > 64 | > 32 | 8 (≈ 14 µM) | > 64 | > 64 | > 64 | > 32 | > 64 | > 32 |
| CCOC(=O)[C@]12CO[C@H](C(C)(C)C)N1C(=O)/C(=C(/CC(F)(F)C(F)(F)C(F)(F)C(F)(F)C(F)(F)F)NCCCN1CCOCC1)C2=O | 32 (≈ 45.4 µM) | 16 (≈ 22.7 µM) | 32 (≈ 45.4 µM) | > 64 | 16 | > 32 | 16 (≈ 22.7 µM) | > 32 | 8 (≈ 11.3 µM) | 8 (≈ 11.3 µM) | 16 (≈ 22.7 µM) | 16 (≈ 22.7 µM) | > 32 | 32 (≈ 45.4 µM) | > 32 |
| CCCCCCCCCN/C(C)=C1/C(=O)N2[C@@H](C(C)(C)C)OC[C@]2(C(=O)OC)C1=O | > 32 | > 32 | > 32 | > 32 | > 32 | > 32 | > 32 | > 32 | > 32 | > 32 | > 32 | > 32 | > 32 | > 32 | > 32 |
| CCCCOCCCN/C(C)=C1/C(=O)N2[C@@H](C(C)(C)C)OC[C@]2(C(=O)OCC)C1=O | > 32 | > 32 | > 32 | > 32 | > 32 | > 32 | > 32 | > 32 | > 32 | > 32 | > 32 | > 32 | > 32 | > 32 | > 32 |
| COC(=O)[C@@]12CO[C@@H](C(C)(C)C)N1C(=O)/C(=C(\C)NCC1CCC3CC1C3(C)C)C2=O (stereo not given in full) | > 32 | > 32 | > 32 | > 32 | > 32 | > 32 | > 32 | > 32 | > 32 | > 32 | > 32 | > 32 | > 32 | > 32 | > 32 |
| CCOC(=O)[C@]12CO[C@H](C(C)(C)C)N1C(=O)/C(=C(\C)NCCCN1CCOCC1)C2=O | > 32 | > 32 | > 32 | > 32 | > 32 | > 32 | > 32 | > 32 | > 32 | > 32 | > 32 | > 32 | > 32 | > 32 | > 32 |
| CCOC(=O)[C@]12CO[C@H](C(C)(C)C)N1C(=O)/C(=C(\C)NCc1cccc(CN3CCC(C)CC3)c1)C2=O | > 32 | > 32 | > 32 | > 32 | > 32 | > 32 | > 32 | > 32 | > 32 | > 32 | > 32 | > 32 | > 32 | > 32 | > 32 |
| CCOC(=O)[C@]12CO[C@H](C(C)(C)C)N1C(=O)/C(=C(\C)NCc1ccc(C)o1)C2=O | > 32 | > 32 | > 32 | > 32 | > 32 | > 32 | > 32 | > 32 | > 32 | > 32 | > 32 | > 32 | > 32 | > 32 | > 32 |
| CCOC(=O)[C@]12CO[C@H](C(C)(C)C)N1C(=O)/C(=C(\C)N1CCN(C3CCCCC3)CC1)C2=O | > 32 | > 32 | > 32 | > 32 | > 32 | > 32 | > 32 | > 32 | > 32 | > 32 | > 32 | > 32 | > 32 | > 32 | > 32 |
| COCCOC(=O)[C@]12CO[C@H](C(C)(C)C)N1C(=O)/C(=C(\C)NCCOc1ccccc1)C2=O | > 32 | > 32 | > 32 | > 32 | > 32 | > 32 | > 32 | > 32 | > 32 | > 32 | > 32 | > 32 | > 32 | > 32 | > 32 |
